Key:
Assay type in all cases: in vitro ADME
CYP2C9 = target: T1, CYP2C9 (Homo sapiens, UniProt P11712); assay: CYP450 inhibition assay in human liver microsomes, CYP2C9; conditions: HLM 0.1 mg/mL; probe diclofenac 10 µM; 10 min
T1 construct: tissue Corning 452117; host or cells: human liver microsomes
Experimental: (§1) To evaluate the reliability and reproducibility of the CYP450 inhibition assay, we measured the inhibitory effects of selected positive control inhibitors of each CYP450 enzyme in human liver microsomes (HLM, Table 1, Figure 2). The potency of inhibition was estimated by observing the alteration in concentration of metabolites of CYP450 substrates (Table 1).
(§2) Reagents preparation. […] The stock solution of PDQ (10 mM) was prepared with methanol and further diluted to the range of 3 µM to 3 mM with methanol to ensure that the solvent of different PDQ samples contained the same amount (1%) of methanol.
(§3) The stock solutions of the positive control inhibitors and the probe substrates of CYP450 enzymes were prepared in methanol.
(§4) CYP450 inhibition assay. […] The assay was conducted in polypropylene 96-well plates (2.2 mL/well, Apricot Designs Inc., Covina, CA, USA).
(§5) The total volume of the reaction is 200 μL. […] The substrates and analytes were analyzed by LC-MS/MS (API4000, Applied Biosystems, Singapore; HPLC, Shimadzu, Japan). […]
(§6) Data analysis. […] The IC50 was determined by fitting the dependence of the relative remaining activity (y = Vi/V0) to the following three-parameter equation (Equation (1)). […]

hOCT2 = target: T2, hOCT2 (Homo sapiens, UniProt O15244); assay: Substrates uptake assay, S2-OCT2 cells (14C-TEA); conditions: 14C-TEA 5 µM, 5 min
T2 construct: host or cells: S2-OCT2
T2 sequence (O15244 1-555): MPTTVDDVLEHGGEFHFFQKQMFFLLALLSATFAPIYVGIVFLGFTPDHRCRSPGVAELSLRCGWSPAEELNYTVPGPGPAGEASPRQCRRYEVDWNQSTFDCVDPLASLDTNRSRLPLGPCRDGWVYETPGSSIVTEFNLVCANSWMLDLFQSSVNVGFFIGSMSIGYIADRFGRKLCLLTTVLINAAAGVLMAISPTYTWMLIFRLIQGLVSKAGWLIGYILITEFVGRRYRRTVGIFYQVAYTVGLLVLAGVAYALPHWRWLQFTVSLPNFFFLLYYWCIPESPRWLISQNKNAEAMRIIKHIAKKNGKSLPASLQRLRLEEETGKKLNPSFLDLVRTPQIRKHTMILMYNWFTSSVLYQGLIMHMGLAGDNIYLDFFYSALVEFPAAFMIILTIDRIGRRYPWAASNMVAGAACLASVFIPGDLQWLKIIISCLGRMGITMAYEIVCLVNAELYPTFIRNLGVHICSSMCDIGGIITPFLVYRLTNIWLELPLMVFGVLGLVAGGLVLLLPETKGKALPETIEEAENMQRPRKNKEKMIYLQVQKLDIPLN

CYP2C19 = target: T3, CYP2C19 (Homo sapiens, UniProt P33261); assay: CYP450 inhibition assay in human liver microsomes, CYP2C19; conditions: HLM 0.1 mg/mL; probe S-mephenytoin 20 µM; 20 min
T3 construct: tissue Corning 452117; host or cells: human liver microsomes
T3 sequence (P33261 whole entry): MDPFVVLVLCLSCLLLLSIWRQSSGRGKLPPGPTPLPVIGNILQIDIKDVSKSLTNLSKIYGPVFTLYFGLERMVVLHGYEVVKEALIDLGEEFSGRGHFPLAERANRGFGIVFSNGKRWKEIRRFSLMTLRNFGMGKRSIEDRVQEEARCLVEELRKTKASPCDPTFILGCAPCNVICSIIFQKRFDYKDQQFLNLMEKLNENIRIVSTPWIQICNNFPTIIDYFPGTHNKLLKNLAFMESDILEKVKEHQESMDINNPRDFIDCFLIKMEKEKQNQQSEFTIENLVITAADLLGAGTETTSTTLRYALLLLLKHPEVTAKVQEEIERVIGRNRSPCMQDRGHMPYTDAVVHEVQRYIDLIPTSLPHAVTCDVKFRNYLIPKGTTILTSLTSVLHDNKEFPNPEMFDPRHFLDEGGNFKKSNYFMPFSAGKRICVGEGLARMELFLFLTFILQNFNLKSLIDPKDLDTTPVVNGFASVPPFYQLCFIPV
Experimental: as §1, §2, §3, §4, §5, §6

CYP2C8 = target: T4, CYP2C8 (Homo sapiens, UniProt P10632); assay: CYP450 inhibition assay in human liver microsomes, CYP2C8; conditions: HLM 0.1 mg/mL; probe amodiaquine 2 µM; 10 min
T4 sequence (P10632 1-490): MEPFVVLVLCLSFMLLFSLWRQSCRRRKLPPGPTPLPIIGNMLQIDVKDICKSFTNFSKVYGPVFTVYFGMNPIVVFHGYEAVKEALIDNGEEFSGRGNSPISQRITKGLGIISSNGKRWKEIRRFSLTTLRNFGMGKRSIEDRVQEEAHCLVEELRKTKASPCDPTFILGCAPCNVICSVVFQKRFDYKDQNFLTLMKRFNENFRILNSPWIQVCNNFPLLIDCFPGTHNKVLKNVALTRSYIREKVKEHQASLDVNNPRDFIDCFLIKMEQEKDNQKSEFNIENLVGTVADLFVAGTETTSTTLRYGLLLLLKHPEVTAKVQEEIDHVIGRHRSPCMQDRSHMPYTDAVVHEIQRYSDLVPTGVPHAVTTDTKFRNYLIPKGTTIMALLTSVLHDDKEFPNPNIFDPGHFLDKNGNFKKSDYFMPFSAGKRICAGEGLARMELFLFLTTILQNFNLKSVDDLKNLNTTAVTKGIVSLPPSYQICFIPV
Experimental: as §1, §2, §3, §4, §5, §6

T1 sequence (P11712 whole entry): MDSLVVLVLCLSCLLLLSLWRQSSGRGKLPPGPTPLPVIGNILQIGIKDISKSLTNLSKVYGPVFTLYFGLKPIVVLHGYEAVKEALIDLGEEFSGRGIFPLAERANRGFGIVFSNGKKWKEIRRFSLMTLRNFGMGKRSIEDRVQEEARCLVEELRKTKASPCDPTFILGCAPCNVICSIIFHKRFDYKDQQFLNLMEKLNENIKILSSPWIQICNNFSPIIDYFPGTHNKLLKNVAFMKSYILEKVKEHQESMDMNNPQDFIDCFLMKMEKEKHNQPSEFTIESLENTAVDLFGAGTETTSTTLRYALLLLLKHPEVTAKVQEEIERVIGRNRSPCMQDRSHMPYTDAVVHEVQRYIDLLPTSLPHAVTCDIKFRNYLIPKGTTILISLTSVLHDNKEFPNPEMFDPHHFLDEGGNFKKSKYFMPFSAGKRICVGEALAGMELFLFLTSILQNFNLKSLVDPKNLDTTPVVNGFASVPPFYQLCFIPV

CC(C)(O)[C@@H]1CC[C@@](C)([C@H]2CC[C@]3(C)[C@@H]2[C@H](O)C[C@@H]2[C@@]4(C)CC[C@H](O)C(C)(C)[C@@H]4CC[C@]23C)O1 [PDQ, (20S,24S)-dammar-20,24-epoxy-3β, 12β, 25-triol] was tested, and the IC50 (CYP2C9) was 11.7 µM, the IC50 (hOCT2) was greater than 30 µM and the IC50 (CYP2C19) was 0.698 µM. It also gave an IC50 (CYP2C8) of 16.4 µM.
